Like-named read-outs stand apart in the source and are kept apart here.
Legend:
[1] = test system: Cabbage Looper (Trichoplusia ni, TRIPNI); assay: Bioassays on Cabbage Looper (CL), 128-well diet tray assay; format: in vivo; conditions: Trichoplusia ni
Outline: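 Each of eight wells receives artificial diet treated at 50 μg/cm^2 with the test molecule, then one to five second-instar larvae. Incubation runs five to seven days at 25° C with a 14:10 light-dark cycle under vented covers. Mortality is scored per well as a percentage and averaged.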

[2] = test system: Beet Armyworm (Spodoptera exigua, LAPHEG); assay: Bioassays on Beet Armyworm (BAW), 128-well diet tray assay; format: in vivo; conditions: Spodoptera exigua
Outline: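 Eight diet wells per compound were treated at 50 μg/cm^2 (acetone-water 90:10), dried, then infested with 1–5 second-instar larvae each. After five to seven days at 25 °C under 14:10 photoperiod, mortality was scored and averaged across wells.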

[3] = Table ABC: Biological Results, species CL, read-out: CL
[4] = Table ABC: Biological Results, species BAW, read-out: BAW
[5] = Cabbage Looper, rating class, read-out: CL
[6] = Beet Armyworm, rating class, read-out: BAW
[7] = Cabbage Looper, Table ABC / ABC-DP rating, read-out: CL rating
[8] = Beet Armyworm, Table ABC / ABC-DP rating, read-out: BAW rating

Row | SMILES | pest or weed control at 50 µg/cm2 [1, 3] | pest or weed control at 50 µg/cm2 [2, 4] | pest or weed control at 50 µg/cm2 [1, 5] | pest or weed control at 50 µg/cm2 [2, 6] | also measured
1 | O=C(Nc1c(F)ccc(NC(=O)C(F)(F)F)c1F)c1cc(NC(=O)[C@H]2[C@H](c3cc(Cl)cc(Cl)c3)C2(Cl)Cl)cc(F)c1Cl [F1340, 2-Chloro-5-((1R,3R)-2,2-dichloro-3-(3,5-dichlorophenyl)cyclopropane-1-carboxamido)-N-(2,6-difluoro-3-(2,2,2-trifluoroacetamido)phenyl)-3-fluorobenzamide] | 50 to 100% | 50 to 100% |  |  | 
2 | Nc1c(F)ccc(NC(=O)c2cc(NC(=O)[C@H]3[C@H](c4ccc(F)c(C(F)F)c4)C3(Cl)Cl)ccc2Cl)c1F (relative stereo) [F1036, trans-N-(3-Amino-2,4-difluorophenyl)-2-chloro-5-(2,2-dichloro-3-(3-(difluoromethyl)-4-fluorophenyl)cyclopropane-1-carboxamido)benzamide] | 50 to 100% | 50 to 100% |  |  | 
3 | CC(C)(C)OC(=O)Nc1c(F)ccc(NC(=O)c2cc(NC(=O)[C@H]3[C@H](c4cc(Br)cc(C(F)(F)F)c4)C3(Cl)Cl)ccc2Cl)c1F (relative stereo) [F1073, trans-tert-Butyl-(3-(5-(3-(3-bromo-5-(trifluoromethyl)phenyl)-2,2-dichlorocyclopropane-1-carboxamido)-2-chlorobenzamido)-2,6-difluorophenyl)carbamate] | 50 to 100% | 50 to 100% |  |  | 
4 | CC(=O)Nc1c(F)ccc(NC(=O)c2cc(NC(=O)[C@H]3[C@H](c4ccc(F)c(Br)c4)C3(Cl)Cl)ccc2Cl)c1F [F1716, N-(3-Acetamido-2,4-difluorophenyl)-5-((1R,3R)-3-(3-bromo-4-fluorophenyl)-2,2-dichlorocyclopropane-1-carboxamido)-2-chlorobenzamide] |  |  | 50 to 100% | 50 to 100% | 
5 | Nc1cc(NC(=O)c2cc(NC(=O)[C@H]3[C@H](c4ccc(F)c(C(F)(F)F)c4)C3(Cl)Cl)ccc2Cl)c(F)cc1F [F1566, N-(5-Amino-2,4-difluorophenyl)-2-chloro-5-((1R,3R)-2,2-dichloro-3-(4-fluoro-3-(trifluoromethyl)phenyl)cyclopropane-1-carboxamido)benzamide] |  |  | 50 to 100% | 50 to 100% | 
6 | CC(NNC(=O)c1cc(NC(=O)[C@H]2[C@H](c3cc(Cl)cc(Cl)c3)C2(Cl)Cl)ccc1Cl)c1ccccc1 (relative stereo) [F2548, trans-2,2-Dichloro-N-(4-chloro-3-(2-(1-phenylethyl)hydrazine-1-carbonyl)phenyl)-3-(3,5-dichlorophenyl)cyclopropane-1-carboxamide] |  |  |  |  | pest or weed control at 50 µg/cm2 [1, 7]: 50 to 100%; pest or weed control at 50 µg/cm2 [2, 8]: 50 to 100%
7 | CC(=O)Nc1ccc(F)c(NC(=O)c2cc(NC(=O)[C@H]3[C@H](c4cc(Cl)c(Cl)c(Cl)c4)C3(Cl)Cl)cc(F)c2F)c1F [F1590, N-(3-Acetamido-2,6-difluorophenyl)-5-((1R,3R)-2,2-dichloro-3-(3,4,5-trichlorophenyl)cyclopropane-1-carboxamido)-2,3-difluorobenzamide] |  |  | 50 to 100% | 50 to 100% | 
8 | O=C(Nc1ccc(F)c(NC(=O)C(F)F)c1F)c1cc(NC(=O)[C@H]2[C@H](c3ccc(F)c(C(F)(F)F)c3)C2(Cl)Cl)cc(F)c1Cl [F1289, 2-Chloro-5-((1R,3R)-2,2-dichloro-3-(4-fluoro-3-(trifluoromethyl)phenyl)-cyclopropane-1-carboxamido)-N-(3-(2,2-difluoroacetamido)-2,4-difluorophenyl)-3-fluorobenzamide] | 50 to 100% | 50 to 100% |  |  | 
9 | CC(=O)Nc1ccc(F)c(NC(=O)c2cc(NC(=O)[C@H]3[C@H](c4cc(Cl)c(Cl)c(Cl)c4)C3(Cl)Cl)cc(C)c2Cl)c1F [F1524, N-(3-Acetamido-2,6-difluorophenyl)-2-chloro-5-((1R,3R)-2,2-dichloro-3-(3,4,5-trichlorophenyl)cyclopropane-1-carboxamido)-3-methylbenzamide] |  |  | 50 to 100% | 50 to 100% | 
10 | CCO[C@H](C)C(=O)Nc1c(F)ccc(NC(=O)c2cc(NC(=O)[C@H]3[C@H](c4ccc(F)c(C(F)(F)F)c4)C3(Cl)Cl)ccc2Cl)c1F [F1732, 2-Chloro-5-((1R,3R)-2,2-dichloro-3-(4-fluoro-3-(trifluoromethyl)phenyl)cyclopropane-1-carboxamido)-N-(3-((R)-2-ethoxypropanamido)-2,4-difluorophenyl)benzamide] |  |  | 50 to 100% | 50 to 100% | 
11 | O=C(Nc1ccc(F)cc1F)c1cc(NC(=O)[C@H]2[C@H](c3ccc(F)c(Cl)c3)C2(Cl)Cl)cc(F)c1F (relative stereo) [F1209, trans-5-(2,2-Dichloro-3-(3-chloro-4-fluorophenyl)cyclopropane-1-carboxamido)-N-(2,4-difluorophenyl)-2,3-difluorobenzamide] | 50 to 100% | 50 to 100% |  |  | 
12 | Nc1ccc(F)c(NC(=O)c2cc(NC(=O)[C@H]3[C@H](c4cc(Cl)c(Cl)c(Cl)c4)C3(Cl)Cl)cc(F)c2F)c1F [F1770, N-(3-Amino-2,6-difluorophenyl)-5-((1R,3R)-2,2-dichloro-3-(3,4,5-trichlorophenyl)cyclopropane-1-carboxamido)-2,3-difluorobenzamide] |  |  |  |  | pest or weed control at 50 µg/cm2 [1, 7]: 50 to 100%; pest or weed control at 50 µg/cm2 [2, 8]: 50 to 100%
13 | COC(=O)c1c(F)ccc(NC(=O)c2cc(NC(=O)[C@H]3[C@H](c4cc(Cl)cc(Cl)c4)C3(Cl)Cl)ccc2Cl)c1F (relative stereo) [F1265, trans-Methyl 3-(2-chloro-5-(2,2-dichloro-3-(3,5-dichlorophenyl)cyclopropane-1-carboxamido)benzamido)-2,6-difluorobenzoate] | 50 to 100% | 50 to 100% |  |  | 
14 | CC(F)(F)CCC(=O)Nc1c(F)ccc(NC(=O)c2cc(NC(=O)[C@H]3[C@H](c4ccc(Cl)c(Cl)c4)C3(Cl)Cl)ccc2Cl)c1F [F1860, 2-Chloro-5-((1R,3R)-2,2-dichloro-3-(3,4-dichlorophenyl)cyclopropane-1-carboxamido)-N-(3-(4,4-difluoropentanamido)-2,4-difluorophenyl)benzamide] |  |  |  |  | pest or weed control at 50 µg/cm2 [1, 7]: 50 to 100%; pest or weed control at 50 µg/cm2 [2, 8]: 50 to 100%
15 | O=C(NCC(F)(F)F)c1cc(NC(=O)[C@H]2[C@H](c3ccc(F)c(Cl)c3)C2(Cl)Cl)cc(F)c1F (relative stereo) [F2049, trans-5-(2,2-Dichloro-3-(3-chloro-4-fluorophenyl)cyclopropane-1-carboxamido)-2,3-difluoro-N-(2,2,2-trifluoroethyl)benzamide] |  |  |  |  | pest or weed control at 50 µg/cm2 [1, 7]: 50 to 100%; pest or weed control at 50 µg/cm2 [2, 8]: 50 to 100%
16 | Cc1cc(NC(=O)[C@H]2[C@H](c3ccc(F)c(C(F)(F)F)c3)C2(Cl)Cl)cc(C(=O)Nc2c(F)ccc(NC(=O)C(F)F)c2F)c1Cl [F1468, 2-Chloro-5-((1R,3R)-2,2-dichloro-3-(4-fluoro-3-(trifluoromethyl)phenyl)cyclopropane-1-carboxamido)-N-(3-(2,2-difluoroacetamido)-2,6-difluorophenyl)-3-methylbenzamide] |  |  | 50 to 100% | 50 to 100% | 
17 | CCNC(=O)c1c(Cl)ccc(NC(=O)[C@H]2[C@H](c3ccc(F)c(Cl)c3)C2(Cl)Cl)c1F [F2071, 6-Chloro-3-((1R,3R)-2,2-dichloro-3-(3-chloro-4-fluorophenyl)cyclopropane-1-carboxamido)-N-ethyl-2-fluorobenzamide] |  |  |  |  | pest or weed control at 50 µg/cm2 [1, 7]: 50 to 100%; pest or weed control at 50 µg/cm2 [2, 8]: 50 to 100%
18 | Nc1cc(NC(=O)c2cc(NC(=O)[C@H]3[C@H](c4ccc(Cl)c(Cl)c4)C3(Cl)Cl)cc(F)c2Cl)c(F)cc1F [F1396, N-(5-Amino-2,4-difluorophenyl)-2-chloro-5-((1R,3R)-2,2-dichloro-3-(3,4-dichlorophenyl)cyclopropane-1-carboxamido)-3-fluorobenzamide] |  |  | 50 to 100% | 50 to 100% | 
19 | CCOC(CC)C(=O)Nc1c(F)ccc(NC(=O)c2cc(NC(=O)[C@H]3[C@H](c4ccc(F)c(C(F)(F)F)c4)C3(Cl)Cl)ccc2Cl)c1F (stereo partly drawn) [F1757, 2-Chloro-5-((1R,3R)-2,2-dichloro-3-(4-fluoro-3-(trifluoromethyl)phenyl)cyclopropane-1-carboxamido)-N-(3-(2-ethoxybutanamido)-2,4-difluorophenyl)benzamide] |  |  | 50 to 100% | 50 to 100% | 
20 | O=C(Nc1ccc(F)c(NC(=O)C(F)(F)F)c1F)c1cc(NC(=O)[C@H]2[C@H](c3cc(Cl)c(Cl)c(Cl)c3)C2(Cl)Cl)cc(F)c1Cl [F1334, 2-Chloro-5-((1R,3R)-2,2-dichloro-3-(3,4,5-trichlorophenyl)cyclopropane-1-carboxamido)-N-(2,4-difluoro-3-(2,2,2-trifluoroacetamido)phenyl)-3-fluorobenzamide] | 50 to 100% | 50 to 100% |  |  | 
21 | O=C(Nc1c(F)ccc(NC(=O)C(F)(F)F)c1F)c1cc(NC(=O)[C@H]2[C@H](c3cc(Cl)c(Cl)c(Cl)c3)C2(Cl)Cl)cc(F)c1F [F1588, 5-((1R,3R)-2,2-Dichloro-3-(3,4,5-trichlorophenyl)cyclopropane-1-carboxamido)-N-(2,6-difluoro-3-(2,2,2-trifluoroacetamido)phenyl)-2,3-difluorobenzamide] |  |  | 50 to 100% | 50 to 100% | 
22 | O=C(Nc1ccc(F)cc1F)c1cc(NC(=O)[C@H]2[C@H](c3cc(Cl)cc(Cl)c3)C2(Cl)Cl)ccc1F (single isomer, unassigned) [F1375] | 50 to 100% | 50 to 100% |  |  | 
